The text below walks through data of patent US20100261710A1, “HDAC Inhibitors” (ARQULE, INC., priority 2007, published 2010).

As a reminder, the melting point is the temperature, or range, at which the solid turns liquid.

For data set [1], the system named is HH cells. Briefly: MTS cell viability assay, HH. Conditions: Homo sapiens, 72 hr, read-out: HH, IG50, MTS. Type of data set: cell-based. As for the experimental part: The MTS cell viability assay was used to determine the potency of proliferation inhibitor with. MTS measures mitochondrial dehydrogenase activity and serves as surrogate readout for the number of viable cells. The protocol described below is based upon the “CellTiter 96 Aqueous Non-Radioactive Cell Proliferation Assay” sold by Promega (Technical Bulletin No. 169).
For MTS assay, cells were plated in 96-well plates at 2000 cells per well and incubated in the presence of compounds for 72 hr. MTS was added to each well as instructed by manufacture (Promega) and plates were incubated for 4 h at 37° C. The absorbance of each well was measured at 490 nm using a microplate reader.

Data set [2] has as its target T1, HDAC1 (Homo sapiens, UniProt Q13547).
T1 construct: cell extract containing HDAC (HeLa in these experiments); endogenous in cells; host or cells: HeLa cell extract
The data set can be described thus: HDAC-1 immunocapture fluorescent biochemical assay (HeLa lysate). Conditions: HDAC1 immunocaptured from HeLa extract. Here is the method:
The HDAC-1 assay represents a novel immunocapture assay procedure. […] The HDAC1 is captured on a protein A coated plate using HDAC1 specific antibody, and is then allowed to react with the substrate.
This assay in performed in four general steps. In the first step (FIG. 1A), cell extract containing HDAC (HeLa in these experiments) is incubated with (cell signaling) rabbit polyclonal HDAC1 antibody (rabbit IgG antibody is used for background control) to allow binding of the enzyme to the antibody. In the second step, the complexed mixture is added to the protein A covered plate which captures the antibody. In the third step, after washing away unbound proteins, substrate and inhibitor are added and deacetylation is allowed to occur. […] The plate is then read on either Victor or Perkin Elmer Envision system using Umbilliferone filter set.
• A. HeLa extract complexed with HDAC1 antibody working solution (in DPBS):
Compound working solution (in HDAC buffer):
Compounds diluted in assay buffer at 2× Screening concentration. • D. Activator solution:
Trypsin (10 mg/mL) diluted 1:1600 in assay buffer containing 4 μM TSA.
Complexing of extract with antibody was carried out at room temperature for 60 min with rocking. Binding of complexes onto protein A plate was carried out at room temperature for 60 min in 50 μL. Reaction was carried out in […], in the protein A plate for 60 minutes at 37° C. 40 μL of the reaction was moved into white ½ area plate for activation and reading.
• 1. Set PIERCE Protein A plate to block with 150 μof 5% BSA in TB ST for 60 min at room temperature. • 2. […] Dilute complexes further ([…]) by addition of 3.5 mL of PBS (final total volume of 5 mL). • 4. Wash blocked protein A plate prior to complex addition with TBST. • 5. Add 50 μl of diluted complexes to Protein A plate and incubate for 60 min at room temperature. • 6. Wash plate with TB ST. • 7. Add 25 μl of diluted compounds (in HDAC buffer) to each well and incubate for 10 min at room temperature. • 8. […] Move 40 μl of reaction to a white plate and add 20 μl of activator/developer solution, mix thoroughly. • 10. Read plate.

Data set [3] has as its target T2, HDAC8 (Homo sapiens, UniProt Q9BY41).
T2 sequence (Q9BY41 1-377): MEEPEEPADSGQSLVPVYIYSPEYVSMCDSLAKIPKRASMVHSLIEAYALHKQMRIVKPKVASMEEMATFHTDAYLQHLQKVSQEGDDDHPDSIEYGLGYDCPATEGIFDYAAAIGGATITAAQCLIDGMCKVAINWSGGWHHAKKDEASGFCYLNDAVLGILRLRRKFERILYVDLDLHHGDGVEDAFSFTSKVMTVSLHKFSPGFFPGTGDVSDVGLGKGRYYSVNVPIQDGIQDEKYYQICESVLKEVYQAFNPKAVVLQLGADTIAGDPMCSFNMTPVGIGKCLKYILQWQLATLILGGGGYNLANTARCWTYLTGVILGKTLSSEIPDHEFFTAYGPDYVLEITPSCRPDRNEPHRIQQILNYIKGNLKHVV
The data set can be described thus: HDAC isoform assay, HDAC8.

For data set [4], the target named is HDAC5 (Homo sapiens, UniProt Q9UQL6). Briefly: HDAC isoform assay, HDAC5.
The target of data set [5] is T3, HDAC3 (Homo sapiens, UniProt O15379).
T3 construct: purchased BioMol
The data set can be described thus: HDAC isoform assay, HDAC3. The data set is classed as biochemical.
Description: The assay measures the ability of a small molecule to inhibit deacetylation of the substrate. Activator reagent recognizes the substrate only if the lysine has been deacetylated.
This homogeneous assay in performed in the same well without washing steps. The HDAC source, nuclear HeLa extract, is incubated with substrate in the presence of an inhibitor compound. At the end of the reaction time, activator solution, containing Trypsin and TSA, is added to stop the deacetylation reaction, and cleave the amino-coumarin from the deacetylated substrate. The plate is then read on either a Perkin Elmer Victor or Envision system using Umbilliferone filter set. […] The signal is directly proportional to the activity of HDACs and compound inhibition of HDAC is monitored by a decrease in signal.

The mark [6] stands for this setting: substrate KI-177, read-out: HDAC3, IC50, ELISA (KI-177).

Like-named read-outs stand apart in the source and are kept apart here.

T3 sequence (O15379 whole entry): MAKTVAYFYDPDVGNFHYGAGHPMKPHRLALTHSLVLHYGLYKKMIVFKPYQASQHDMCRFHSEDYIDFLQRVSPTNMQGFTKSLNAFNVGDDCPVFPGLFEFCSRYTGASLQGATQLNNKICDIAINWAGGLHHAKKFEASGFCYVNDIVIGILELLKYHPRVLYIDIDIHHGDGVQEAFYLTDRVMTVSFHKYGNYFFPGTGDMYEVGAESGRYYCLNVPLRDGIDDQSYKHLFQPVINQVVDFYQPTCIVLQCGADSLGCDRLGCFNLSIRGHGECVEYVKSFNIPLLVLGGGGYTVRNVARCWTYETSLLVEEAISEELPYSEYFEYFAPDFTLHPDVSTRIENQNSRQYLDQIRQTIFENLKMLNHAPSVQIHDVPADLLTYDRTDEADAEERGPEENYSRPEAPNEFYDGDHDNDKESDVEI
T3 sequence (O75376 395-489 partner limits assumed): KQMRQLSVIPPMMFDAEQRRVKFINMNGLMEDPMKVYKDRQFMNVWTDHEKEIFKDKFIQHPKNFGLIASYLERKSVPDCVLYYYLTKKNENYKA
T1 sequence (Q13547 whole entry): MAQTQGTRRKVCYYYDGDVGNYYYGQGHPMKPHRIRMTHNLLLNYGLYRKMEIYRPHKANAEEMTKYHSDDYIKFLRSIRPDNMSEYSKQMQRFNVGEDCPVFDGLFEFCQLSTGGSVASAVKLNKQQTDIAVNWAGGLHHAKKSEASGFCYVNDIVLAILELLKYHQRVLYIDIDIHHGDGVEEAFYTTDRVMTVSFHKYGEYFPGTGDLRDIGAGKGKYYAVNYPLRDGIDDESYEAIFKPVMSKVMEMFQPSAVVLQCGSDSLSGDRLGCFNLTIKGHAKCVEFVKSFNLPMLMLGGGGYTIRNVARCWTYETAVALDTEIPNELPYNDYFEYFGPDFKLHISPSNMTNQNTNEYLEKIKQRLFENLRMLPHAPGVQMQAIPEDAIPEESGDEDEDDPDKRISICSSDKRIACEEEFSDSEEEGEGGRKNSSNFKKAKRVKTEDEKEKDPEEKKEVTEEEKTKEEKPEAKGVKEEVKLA
Chain of HDAC5 (Q9UQL6 whole entry, canonical isoform): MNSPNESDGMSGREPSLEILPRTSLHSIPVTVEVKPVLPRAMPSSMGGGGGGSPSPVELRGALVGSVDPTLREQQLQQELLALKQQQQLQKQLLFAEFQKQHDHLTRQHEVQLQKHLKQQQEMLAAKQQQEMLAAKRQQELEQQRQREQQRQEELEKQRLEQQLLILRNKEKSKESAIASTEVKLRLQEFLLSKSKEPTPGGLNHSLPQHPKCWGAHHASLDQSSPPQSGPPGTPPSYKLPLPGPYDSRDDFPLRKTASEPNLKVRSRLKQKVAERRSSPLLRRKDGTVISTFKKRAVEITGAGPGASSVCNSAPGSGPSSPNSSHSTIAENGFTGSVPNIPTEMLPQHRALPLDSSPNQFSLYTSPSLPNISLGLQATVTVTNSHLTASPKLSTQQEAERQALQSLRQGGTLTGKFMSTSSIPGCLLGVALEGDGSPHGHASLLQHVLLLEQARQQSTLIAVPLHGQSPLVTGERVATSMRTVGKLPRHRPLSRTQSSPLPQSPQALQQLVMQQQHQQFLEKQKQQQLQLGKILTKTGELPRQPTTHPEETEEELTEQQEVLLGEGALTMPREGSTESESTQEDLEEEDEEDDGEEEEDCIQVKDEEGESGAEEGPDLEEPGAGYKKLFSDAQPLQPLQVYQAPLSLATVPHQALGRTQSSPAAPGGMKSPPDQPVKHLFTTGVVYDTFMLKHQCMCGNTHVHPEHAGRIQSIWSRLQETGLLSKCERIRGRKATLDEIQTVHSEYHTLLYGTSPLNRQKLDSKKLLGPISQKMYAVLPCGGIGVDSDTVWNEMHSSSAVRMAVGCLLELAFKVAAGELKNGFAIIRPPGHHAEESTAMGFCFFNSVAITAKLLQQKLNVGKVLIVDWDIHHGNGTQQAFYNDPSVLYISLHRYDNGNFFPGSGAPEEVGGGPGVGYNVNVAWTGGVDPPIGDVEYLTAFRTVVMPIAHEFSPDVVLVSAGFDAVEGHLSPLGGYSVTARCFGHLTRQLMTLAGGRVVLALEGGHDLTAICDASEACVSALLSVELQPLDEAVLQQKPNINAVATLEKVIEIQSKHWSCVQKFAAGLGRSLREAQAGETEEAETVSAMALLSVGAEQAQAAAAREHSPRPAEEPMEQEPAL

For `O=C(CCCCCNC(=O)c1cn2c3c(cccc13)CCC2)NO` [compound 2, N-[6-(hydroxyamino)-6-oxohexyl]-5,6-dihydro-4H-pyrrolo[3,2,1-ij]quinoline-1-carboxamide], the IC50 in data set [1] stood at 1720 nM; in data set [2] it was 13.2 nM; in data set [3] it was 1090 nM; in data set [4], 91.1 nM; in data set [5], 13.6 nM.

In turn, `O=C(CCCCCCNC(=O)c1cn2c3c(cccc13)CCC2)NO` [compound 3, N-[7-(hydroxyamino)-7-oxoheptyl]-5,6-dihydro-4H-pyrrolo[3,2,1-ij]quinoline-1-carboxamide] registered a melting point of 205 to 206 °C. For the same molecule, the IC50 in data set [1] amounted to 111 nM. The molecule also gave an IC50 in data set [2] of 41 nM. The same molecule had an IC50 in data set [3] of 408 nM. Further, the IC50 in data set [4] came to 95 nM. The IC50 in data set [5] is 45.7 nM.

Consider `O=C(CCCCCNC(=O)C(=O)c1cn2c3c(cccc13)CCC2)NO` [compound 8, 6-{[5,6-dihydro-4H-pyrrolo[3,2,1-ij]quinolin-1-yl(oxo)acetyl]amino}-N-hydroxyhexanamide], for which the melting point was in the range of 150 to 155 °C. Also, in data set [1], the IC50 was found to be 2620 nM. In data set [2], the IC50 stood at 45 nM. The same molecule displayed an IC50 in data set [3] of 9240 nM. Besides, the IC50 in data set [4] came out at 163 nM. This molecule also displayed an IC50 in data set [5] of 20.4 nM.

Regarding `O=C(CCCNC(=O)C(=O)c1cn2c3c(cccc13)CCC2)NO` [compound 9, 4-{[5,6-dihydro-4H-pyrrolo[3,2,1-ij]quinolin-1-yl(oxo)acetyl]amino}-N-hydroxybutanamide], the melting point is 95 to 97 °C. For the same molecule, the IC50 in data set [1] worked out at 365 nM. The same molecule registered an IC50 in data set [2] of 583 nM. This molecule came in with an IC50 in data set [3] of 10000 nM. In data set [5], this molecule came in with an IC50 of 630 nM.

`O=C(CCCCCCNC(=O)Nc1cn2c3c(cccc13)CCC2)NO` [compound 11, 7-[(5,6-dihydro-4H-pyrrolo[3,2,1-ij]quinolin-1-ylcarbamoyl)amino]-N-hydroxyheptanamide]: the melting point fell in the range of 185 to 187 °C. For the same molecule, the IC50 in data set [1] was found to be 94 nM. In addition, the IC50 in data set [2] was 22 nM. In data set [3], this molecule had an IC50 of 492 nM. Moreover, the IC50 in data set [4] came to 353 nM. In data set [5] (setting [6]), the IC50 amounted to 23 nM.

As for `O=C(CCCCCCNC(=O)C(=O)c1cn2c3c(cccc13)CCC2)NO` [compound 12, 7-{[5,6-dihydro-4H-pyrrolo[3,2,1-ij]quinolin-1-yl(oxo)acetyl]amino}-N-hydroxyheptanamide], the melting point lay within 158 to 159 °C. Further, the IC50 in data set [1] was 45 nM. Also, the IC50 in data set [2] was 90.4 nM. For the same molecule, in data set [3], the IC50 came out at 6420 nM. Moreover, the IC50 in data set [4] was 260 nM. In data set [5] (setting [6]), the IC50 was determined as 87.6 nM.

For `O=C(CCCCCNC(=O)Nc1cn2c3c(cccc13)CCC2)NO` [compound 13, 6-[(5,6-dihydro-4H-pyrrolo[3,2,1-ij]quinolin-1-ylcarbamoyl)amino]-N-hydroxyhexanamide], the melting point was in the range of 161 to 163 °C. Besides, in data set [1], the IC50 came out at 1020 nM. The molecule further registered an IC50 in data set [2] of 18.9 nM. In data set [3], this molecule came in with an IC50 of 918 nM. Moreover, the IC50 in data set [4] worked out at 201 nM. Also, the IC50 in data set [5] (setting [6]) came to 20.5 nM.
